Measurements: patent publication US20250230193A1, “CYCLIC COMPOUND HAVING SELECTIVE KRAS INHIBITORY EFFECT ON HRAS AND NRAS” (CHUGAI SEIYAKU KABUSHIKI KAISHA, priority 2022, published 2025)
Where a SMILES comes first, the peptide text is derived from it. Bridges are numbered along the chain shown (N, C = ends). [ ]: non-standard residue; d: D form. The star is where a group is joined. hPhe(3-Cl-4-CF3) = N[C@@H](CCc1ccc(C(F)(F)F)c(Cl)c1)C(=O)O; NPrPhe(4-CF3) = CCCN[C@@H](Cc1ccc(C(F)(F)F)cc1)C(=O)O; NMeGly(cPent) = CN[C@H](C(=O)O)C1CCCC1; NMeL = CN[C@@H](CC(C)C)C(=O)O; Morpholide = C1CN(*)CCO1; NMeA = CN[C@@H](C)C(=O)O; Ac5c = NC1(C(=O)O)CCCC1; Aze = O=C(O)[C@@H]1CCN1; Sar = CNCC(=O)O

Assays:
[1] = target: GDP-bound HRAS wild-type protein (Homo sapiens, UniProt P01112); test: Binding to HRAS by surface plasmon resonance (SPR), Single Cycle Kinetics
[2] = target: GDP-bound NRAS wild-type protein (Homo sapiens, UniProt P01111); test: Binding to NRAS by surface plasmon resonance (SPR), Single Cycle Kinetics
[3] = KD ratio, GDP-bound HRAS wild-type vs GDP-bound KRAS wild-type, SPR
[4] = KD ratio, GDP-bound NRAS wild-type vs GDP-bound KRAS wild-type, SPR
[5] = KD ratio HRAS/KRAS, class symbols
[6] = KD ratio NRAS/KRAS, class symbols
[7] = SPR, GDP-bound HRAS wild-type vs GDP-bound KRAS wild-type
[8] = SPR, GDP-bound NRAS wild-type vs GDP-bound KRAS wild-type

Sequence of GDP-bound NRAS wild-type protein (P01111 whole entry): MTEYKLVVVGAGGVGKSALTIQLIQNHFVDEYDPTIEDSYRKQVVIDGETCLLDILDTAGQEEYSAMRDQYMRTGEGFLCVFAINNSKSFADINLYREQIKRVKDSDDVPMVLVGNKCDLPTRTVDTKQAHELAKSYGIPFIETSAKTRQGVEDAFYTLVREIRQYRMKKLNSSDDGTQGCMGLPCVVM
Sequence of GDP-bound HRAS wild-type protein (P01112 whole entry): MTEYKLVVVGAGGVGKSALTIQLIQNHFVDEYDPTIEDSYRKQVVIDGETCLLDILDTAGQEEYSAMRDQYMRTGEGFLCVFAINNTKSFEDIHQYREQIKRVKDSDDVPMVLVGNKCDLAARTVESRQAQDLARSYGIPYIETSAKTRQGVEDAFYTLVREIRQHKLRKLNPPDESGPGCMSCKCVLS

## CCO[C@@H]1C[C@H]2C(=O)NC3(CCC3)C(=O)N(C)[C@@H](C(CC)CC)C(=O)N(C)[C@H](C3CCC3)CC(=O)N(C)[C@@H](CC3CC3)C(=O)N[C@@H]([C@@H](C)CC)C(=O)N(C)CC(=O)N(C)[C@H]3C/C=C\CCN(C3=O)[C@@H](Cc3ccc(C(F)(F)F)cc3)C(=O)N(C)CC(=O)N[C@@H](CCc3cc(F)c(C(F)(F)F)c(F)c3)C(=O)N2C1 [PP1636]
[1]; [3]
  HRAS/KRAS (ratio of KD value for HRAS to KD value for KRAS): A (a compound having 10 or more and less than 20 is denoted as A)
[2]; [4]
  NRAS/KRAS (ratio of KD value for NRAS to KD value for KRAS): A (a compound having 10 or more and less than 20 is denoted as A)

## CCO[C@@H]1C[C@H]2C(=O)NC3(CC(C)(C)C3)C(=O)N(C)[C@@H](C3CCCC3)C(=O)N(C)[C@H](C(=O)N(C)C)CC(=O)N(C)[C@@H](CC(F)(F)F)C(=O)N[C@@H]([C@@H](C)CC)C(=O)N(C)CC(=O)N(C)[C@H]3C/C=C\CCN(C3=O)[C@@H](Cc3ccc(C(F)(F)F)cc3)C(=O)N(C)CC(=O)N[C@@H](CCc3ccc(Cl)c(Cl)c3)C(=O)N2C1 [PP2832]
[1]; [5]
  HRAS/KRAS (ratio of KD value with respect to GDP-bound HRAS wild-type protein to KD value with respect to KRAS): A (a compound having 10 or more and less than 20 is denoted as A)
[2]; [6]
  NRAS/KRAS (ratio of KD value with respect to GDP-bound NRAS wild-type protein to KD value with respect to KRAS): A (a compound having 10 or more and less than 20 is denoted as A)

## CCCOC[C@H]1C(=O)N[C@@H]([C@@H](C)CC)C(=O)N(C2CC2)CC(=O)N(C)[C@H]2C/C=C\CCN(C2=O)[C@@H](Cc2ccc(C)cc2)C(=O)N(C)CC(=O)N[C@@H](CCc2ccc(C(F)(F)F)c(OC)c2)C(=O)N2C[C@H](OCC)C[C@H]2C(=O)N(C)C2(CCC2)C(=O)N(C)[C@@H](C2CCCC2)C(=O)N(C)[C@H](C(=O)N(C)C)CC(=O)N1C [PP2330]
[1]; [7]
  HRAS/KRAS (ratio of KD value with respect to HRAS to KD value with respect to KRAS): A (a compound having 10 or more and less than 20 is denoted as A)
[2]; [8]
  NRAS/KRAS (ratio of KD value with respect to NRAS to KD value with respect to KRAS): A (a compound having 10 or more and less than 20 is denoted as A)

## CCCN1C(=O)[C@@H]2CCN2C(=O)[C@H](C)N(C)C(=O)[C@H]([C@@H](C)CC)NC(=O)[C@H](CC(C)C)N(C)C(=O)C[C@@H](C(=O)N2CCOCC2)NC(=O)[C@H](C2CCCC2)N(C)C(=O)C2(CCCC2)NC(=O)[C@@H]2CCCN2C(=O)[C@H](CCc2ccc(C(F)(F)F)c(Cl)c2)NC(=O)CN(C)C(=O)[C@@H]1Cc1ccc(C(F)(F)F)cc1 [PP0343] ([NMeL]I[NMeA][Aze][NPrPhe(4-CF3)][Sar][hPhe(3-Cl-4-CF3)]P[Ac5c][NMeGly(cPent)]D-Morpholide; lactam N-11)
[1]; KD ratio HRAS/KRAS, SPR
  HRAS/KRAS (ratio of KD for GDP-bound HRAS wild-type to KD for KRAS): B (a compound having 3 or more and less than 10 is denoted as B)
[2]; KD ratio NRAS/KRAS, SPR
  NRAS/KRAS (ratio of KD for GDP-bound NRAS wild-type to KD for KRAS): C (A compound having a KD ratio of 0.1 or more and less than 3 is denoted as C)

## CCO[C@@H]1C[C@H]2C(=O)NC3(CC(C)(C)C3)C(=O)N(C)[C@@H](C3CCCC3)C(=O)N(C)[C@H](C(=O)N(C)C)CC(=O)N(C)[C@@H](COC)C(=O)N[C@@H]([C@@H](C)CC)C(=O)N(C)CC(=O)N(C)[C@H]3C/C=C\CCN(C3=O)[C@@H](Cc3ccc(C)cc3)C(=O)N(C)CC(=O)N[C@@H](CCc3ccc(C(F)(F)F)c(Cl)c3)C(=O)N2C1 [PP2389]
[1]; [7]
  HRAS/KRAS (ratio of KD value with respect to HRAS to KD value with respect to KRAS): B (a compound having 3 or more and less than 10 is denoted as B)
[2]; [8]
  NRAS/KRAS (ratio of KD value with respect to NRAS to KD value with respect to KRAS): A (a compound having 10 or more and less than 20 is denoted as A)

## CC(C)C[C@H]1C(=O)N[C@@H](C2CCC2)C(=O)N(C)CC(=O)N(C)[C@H]2CCCCN(C2=O)[C@@H](Cc2ccc(C(F)(F)F)cc2)C(=O)N(C)CC(=O)N[C@@H](CCc2cc(F)c(C(F)(F)F)c(F)c2)C(=O)N2CCC[C@H]2C(=O)NC2(CCCC2)C(=O)N(C)[C@@H](C2CCCC2)C(=O)N(C)[C@H](C(=O)N2CCOCC2)CC(=O)N1C [PP0596]
[1]; KD ratio HRAS/KRAS, SPR
  HRAS/KRAS (ratio of KD value with respect to GDP-bound HRAS wild-type protein to KD value with respect to KRAS): B (a compound having 3 or more and less than 10 is denoted as B)
[2]; KD ratio NRAS/KRAS, SPR
  NRAS/KRAS (ratio of KD value with respect to GDP-bound NRAS wild-type protein to KD value with respect to KRAS): B (a compound having 3 or more and less than 10 is denoted as B)

## CCO[C@@H]1C[C@H]2C(=O)NC3(CCC3)C(=O)N(C)[C@@H](C3CCCC3)C(=O)N(C)[C@H](C(=O)N(C)C)CC(=O)N(C)[C@@H](CC)C(=O)N[C@@H]([C@@H](C)CC)C(=O)N3CC[C@H]3C(=O)N(C)[C@H]3C/C=C\CCN(C3=O)[C@@H](Cc3ccc(C(F)(F)F)cc3)C(=O)N(C)CC(=O)N[C@@H](CCc3cc(F)c(C(F)(F)F)c(F)c3)C(=O)N2C1 [PP0984]
[1]; [3]
  HRAS/KRAS (ratio of KD value with respect to HRAS to KD value with respect to KRAS): A (a compound having 10 or more and less than 20 is denoted as A)
[2]; [4]
  NRAS/KRAS (ratio of KD value with respect to NRAS to KD value with respect to KRAS): A (a compound having 10 or more and less than 20 is denoted as A)

## CCC[C@H]1C(=O)N[C@@H](C2CCCCC2)C(=O)N(C)CC(=O)N(C)[C@H]2C/C=C\CCN(C2=O)[C@@H](Cc2ccc(C(F)(F)F)cc2)C(=O)N(C)CC(=O)N[C@@H](CCc2ccc(C(F)(F)F)c(Cl)c2)C(=O)N2C[C@H](OCC)C[C@H]2C(=O)NC2(CC(C)(C)C2)C(=O)N(C)[C@@H](C2CCCC2)C(=O)N(C)[C@H](C(=O)N(C)C)CC(=O)N1C [PP2996]
[1]; KD ratio HRAS/KRAS, SPR, GDP-bound wild-type proteins
  HRAS/KRAS (ratio of KD value with respect to GDP-bound HRAS wild-type protein to KD value with respect to KRAS): A (a compound having 10 or more and less than 20 is denoted as A)
[2]; KD ratio NRAS/KRAS, SPR, GDP-bound wild-type proteins
  NRAS/KRAS (ratio of KD value with respect to GDP-bound NRAS wild-type protein to KD value with respect to KRAS): AA (a compound having 20 or more is denoted as AA)

## CCO[C@@H]1C[C@H]2C(=O)NC3(CCC3)C(=O)N(C)[C@@H](C3CCCC3)C(=O)N(C)[C@H](C(=O)N(C)C)CC(=O)N(C)[C@@H](CC)C(=O)N[C@@H]([C@@H](C)CC)C(=O)N(C)CC(=O)N(C)[C@H]3CCCCCN(C3=O)[C@@H](Cc3ccc(C(F)(F)F)cc3)C(=O)N(C)CC(=O)N[C@@H](CCc3c(F)c(F)c(C(F)(F)F)c(F)c3F)C(=O)N2C1 [PP0891]
[1]; [3]
  HRAS/KRAS (ratio of KD value with respect to HRAS to KD value with respect to KRAS): B (a compound having 3 or more and less than 10 is denoted as B)
[2]; [4]
  NRAS/KRAS (ratio of KD value with respect to NRAS to KD value with respect to KRAS): B (a compound having 3 or more and less than 10 is denoted as B)

## CCO[C@@H]1C[C@H]2C(=O)NC3(CC(C)(C)C3)C(=O)N(C)[C@@H](C3CCCC3)C(=O)N(C)[C@H](C(=O)N(C)C)CC(=O)N(C)[C@@H](COC)C(=O)N[C@@H]([C@@H](C)CC)C(=O)N(C3CC3)CC(=O)N(C)[C@H]3C/C=C\CCN(C3=O)[C@@H](CC3CCCCC3)C(=O)N(C)CC(=O)N[C@@H](CCc3cc(F)c(C(F)(F)F)c(F)c3)C(=O)N2C1 [PP2562]
[1]; [5]
  HRAS/KRAS (ratio of KD value with respect to GDP-bound HRAS wild-type protein to KD value with respect to KRAS): B (a compound having 3 or more and less than 10 is denoted as B)
[2]; [6]
  NRAS/KRAS (ratio of KD value with respect to GDP-bound NRAS wild-type protein to KD value with respect to KRAS): B (a compound having 3 or more and less than 10 is denoted as B)

## CCO[C@@H]1C[C@H]2C(=O)NC3(CCC3)C(=O)N(C)[C@@H](C(CC)CC)C(=O)N(C)[C@H](C(=O)N3CCOCC3)CC(=O)N(C)[C@@H](CC(C)C)C(=O)N[C@@H]([C@@H](C)CC)C(=O)N(C)CC(=O)N(C)[C@H]3CCCCCN(C3=O)[C@@H](Cc3ccc(C(F)(F)F)cc3)C(=O)N(C)CC(=O)N[C@@H](CCc3cc(F)c(C(F)(F)F)c(F)c3)C(=O)N2C1 [PP0820]
[1]; [3]
  HRAS/KRAS (ratio of KD value with respect to HRAS to KD value with respect to KRAS): B (a compound having 3 or more and less than 10 is denoted as B)
[2]; [4]
  NRAS/KRAS (ratio of KD value with respect to NRAS to KD value with respect to KRAS): A (a compound having 10 or more and less than 20 is denoted as A)
